This is an account of results in patent US5215738A, “Benzamide and nicotinamide radiosensitizers” (SRI International, priority 1990, dated 1993).

One series deals with EMT6 tumors. Briefly: In vivo assay for radiosensitization activity (EMT6 tumors in BALB/c mice). More on the design: species or system female BALB/c mice; key: 0: No radiosensitization; 1: Minimal radiosensitization (some radiosensitization relative to controls but lowest survival>3×lowest survival with MIS); 2: Moderate radiosensitization (not good as MIS, but lowest surviving fraction<3×lowest surviving fraction with MIS); 3: Good radiosensitization (equal to MIS); 4: Excellent radiosensitization (superior to MIS). Conditions: score 0 to 4 compared with MIS, 5 mmol/kg or 2/3 of the LD50, 2,000 rad. The procedure: In Vivo Assay for Radiosensitization Activity
The compounds of the invention are tested in vivo for radiosensitization activity by the assay of Brown, J. M. Radiation Res (1975) 64:633-47, incorporated herein by reference. For this assay EMT6 tumors in female BALB/c mice weighing 20-25 g are used. These mice are bred under specific pathogen-free conditions and are 3-4 months old at the beginning of each experiment. The EMT6 tumor is grown intradermally in the flank from an inoculation of 2×10^5 tumor cells taken from the 2nd-8th in vitro passage of the tumor cells since removal from the previous in vivo tumor. Two tumors per mouse are implanted, and are used as subject tumors when they reach a volume of approximately […]. At this point the tumors contain approximately 20% hypoxic cells.
Test compounds are compared against MIS in this assay. The test compound is tested at a fixed injected dose of either 5 mmol/kg or 2/3 of the LD50 (whichever is lower), MIS is injected into controls at the same dose. Additional suitable controls of test compound-injected but nonirradiated and saline-injected and irradiated mice are also included. A fixed radiation dose of 2,000 rad is applied at variable intervals of 5 min to 2 hr between injection and irradiation. Typically, irradiation is applied at 5, 10, 15, 20, 30, 45, 60, 90, and 120 min following intraperitoneal administration of both drugs. By using these intervals, the results give an indication of both the optimum time to irradiate and of how the test compound sensitizes in relationship to MIS.
Irradiation of the EMT6 tumors is done by irradiating nonanesthetized tumor-bearing mice in a Plexiglas box. Irradiation conditions are 250 kVp X-rays, 15 mA, FSC 33 cm, added filtration of 0.35 mm Cu, half value layer 1.3 mm Cu, and a dose rate of 317 rad/min.
Radiosensitization activity is judged by survival rate of dissected and cultured tumor cells as follows: The tumor-bearing mice are killed immediately after irradiation, and tumors dissected from the skin, cut into several pieces, and made into a fine brei by high-speed chopping with a razor blade attached to a jigsaw. The brei is added to 30 ml of Hank's buffered salt solution (HBSS) containing 0.02% DNase, 0.05% promase, and 0.02% collagenase. The suspension is stirred for 30 min at 37° C., filtered, and centrifuged at 1,600 rmp for 10 min at 4° C. The cell pellet is resuspended in complete Waymouth's medium plus 12-1/2% horse serum plus 2-12% fetal calf serum (FCS) and an aliquot mixed with trypan blue and counted with the use of a hemacytometer. […] After incubation for 13 days, the colonies are fixed and stained, and those containing 50 cells or more are counted. […]
The test compound is scored on the scale of 0 to 4 based on how it compares with MIS. […]

Series [1] can be described thus: Cytotoxicity test (% cell survival, hypoxic cells). It counts as cell-based, Chinese hamster. As to conditions: hamster, cho ha-1 cells, 10 mM, 22° C., hypoxia. How it is done:
(§1) Cytotoxicity tests were also carried out on some of the compounds. The test procedure was as follows: Log-phase Chinese hamster ovary HA-1 cells were trypsinized (0.5% trypsin in Hank's buffered salt solution (HBSS)) and plated in 60 mm Permanox petri dishes in concentrations necessary to yield approximately 30 colonies after experimental treatment. The cells were allowed to attach overnight. Then the medium was removed from each dish and replaced with 2 ml of medium containing varying concentrations of the test compound. The petri dishes were then placed in nylon chamber fitted with gassing ports and, to achieve hypoxia, were gassed at room temperature with humidified N2 containing 5% CO2 ' for 1 hr at a rate of 1 l/min. The cells are then exposed to 10 mM of the test compound for 1 hr at 22° C. The % cell survival is read after such treatment.

In the next series the test system is Chinese hamster cells. Conditions: added during or after irradiation; non-hypoxic cells; cited from earlier work.
The subject of series [2] is normal cells (tail growth) and tumor cells. Conditions: nicotinamide administered prior to irradiating; cited from earlier work.
The next series is described as follows: Water solubility. It counts as physicochemical.
Series [3] deals with Chinese hamster ovary HA-1 cells. Put plainly: Cytotoxicity test (% cell survival, hypoxic cells). It is filed as cell-based. Conditions: 10 mM, 1 hr, 22° C., hypoxia, CHO HA-1 cells; 60 min, 10000 µM. The procedure:
as §1

Where a name gives a salt, the structure may show the parent alone.

By viability is commonly meant a read-out of living cells in per cent, often relative to untreated cells. Turning to `NC(=O)c1cccc(OCCO)c1` [3-(2-hydroxyethoxy)benzamide], in the series with EMT6 tumors, the Radiosensitization was 3. The viability at 1 h, 10000 µM in series [1] was found to be 89%.
For the compound `NC(=O)c1cccc(N)c1` [m-aminobenzamide], the “sensitization to lethal effects of radiation” value with Chinese hamster cells is on record as “found to sensitize these cells to the lethal effects of radiation”.
Consider `NC(=O)c1cccnc1` [nicotinamide], for which the Radiosensitization in the series with EMT6 tumors came out at 3. The “enhancement ratio, normal vs tumor cells” value in series [2] is “greater for normal cells in vivo than that exhibited for tumor cells”.
With `NC(=O)c1cncc(O)c1` [5-hydroxynicotinamide sodium salt, 5-hydroxynicotinamide], the water solubility result in “Water solubility” was “very water soluble”.
Take `COCCNc1cncc(C(N)=O)c1` [3-(2-methoxyethylamino)nicotinamide, 3-(2-methoxyethylamino) nicotinamide]: the Radiosensitization in the series with EMT6 tumors is recorded as 3.
As for `NC(=O)c1cccc(O)c1` [3-hydroxybenzamide], the Radiosensitization in the series with EMT6 tumors was 3. In addition, the viability at 1 h, 10000 µM in series [1] came out at 90%. The “Cytotoxicity % Cell Survival” value in series [3] was found to be 77%.
